Results reported in patent publication US20150297694A1, “CANCER DIAGNOSTIC AND THERAPEUTIC METHOD TARGETING MOLECULES EXPRESSED IN CANCER STEM CELLS” (NIIGATA UNIVERSITY, priority 2012, published 2015).

Tested on: PBMC of healthy volunteers (HLA-A*0201 or HLA-A*2601)
Assay: IFN-γ production (ELISA) by DDX3X-derived peptide stimulation of peptide-induced CTL from PBMC
Assay type: cell-based, human
Conditions: peptide 20 μg/mL, 24 hours
Experimental: PBMC (1.5×10^7 cells) were inoculated in a 24-well plate in 1.5×10^6 cells/well (Day 0). Then, three types of DDX3X-derived peptides (final concentration 20 μg/mL each), and IL-7 (final concentration 10 ng/mL) were added to each well, and the cells were cultured at 37° C. in 5% CO2.
The cells were re-stimulated after 1 week (Day 7). For re-stimulation, the PBMC cryopreserved as antigen-presenting cells in Day 0 were thawed, and the three types of DDX3X-derived peptides (final concentration 20 μg/mL each) were added and conjugated at 37° C. for 2 hours after adjusting the cells to 3×10^6 cells/mL or less. This was followed by addition of a mitomycin C [Kyowa Hakko Kirin] solution to make the final concentration 50 μg/mL, and the cells were treated at 37° C. for 45 min. The cells were washed twice with AIM-V, and resuspended in medium to obtain an antigen-presenting cell suspension. After harvesting cells cultured for 1 week, the cells were inoculated in a 24-well plate in 1.2×10^6 cells/well, and the antigen-presenting cell suspension was inoculated with the same number of cells. Finally, IL-7 was added at 10 ng/ml, and the cells were cultured at 37° C. in 5% CO2. After 2 days (Day 9), half of the culture medium was gently removed from each well, and replaced with 40 U/mL of IL-2-containing medium for further culture. The half-volume replacement of the culture medium with 20 U/mL of IL-2-containing medium was repeated in the same fashion every other day (Day 11, Day 13). Re-stimulation was repeated in Day 14 and Day 21 using the same procedure. […]
Twenty-four hours after peptide stimulation, the culture supernatant was gently collected from each well. IFN-γ concentration in each culture supernatant was detected by ELISA, by using an ELISA reagent set (BD OptEIA ELISA set (human IFN-7)(trade name)) according to the manufacturer's protocol after modification. […] Measurements were made with a visible wavelength absorbance microplate reader (VERSAmax(trade name); Molecular Device).

Sequence | samples showing IFN-γ production (Day 28, samples with A*2601) | samples showing IFN-γ production (Day 21, samples with A*2601) | samples showing IFN-γ production (Day 28, samples with A*0201)
FVETKKGADSLEDFLYHEGY (listed as Homo sapiens) [DDX3X-20 mer] | one of the five |  | 
LEDFLYHEGY (listed as Homo sapiens) [DDX3X-10 mer] |  | two of the five | one of the six
